Source: ChEMBL document CHEMBL5352408, “Discovery of dehydroandrographolide derivatives with C19 hindered ether as potent anti-ZIKV agents with inhibitory activities to MTase of ZIKV NS5” (Eur J Med Chem, 2022)
pEC50, pIC50: −log10 of the molar value. Calls of active or inactive are those of the source. The calls are words filed in the database; no cut-off is given here.

Legend:
Zika virus [1] = experiment: Antiviral activity against ZIKV infected in African green monkey vero cells assessed as reduction in plaque formation incubated for 5 days by crystal violet based assay; assay type: functional, organism-based; conditions: for pEC50: 120 h
[2] = Cytotoxicity against african green monkey Vero cells incubated for 96 hrs; assay type: toxicity, cell-based; conditions: chlorocebus sabaeus
Genome polyprotein = Genome polyprotein (Zika virus, UniProt Q32ZE1); experiment: Inhibition of ZIKV NS5 MTase activity assessed as methyltransferase reaction using capped RNA substrate pre-incubated for 2.5 hrs followed by enzyme addition measured after 1 hrs by luminometer
[3] = Cytotoxicity against human Huh-7 cells incubated for 96 hrs; assay type: toxicity, cell-based
[4] = Cytotoxicity against human A549 cells incubated for 96 hrs; assay type: toxicity, cell-based
Zika virus [5] = experiment: Antiviral activity against ZIKV infected in African green monkey vero cells incubated for 48 hrs by qRT-PCR analysis; assay type: functional, organism-based
Zika virus [6] = experiment: Antiviral activity against ZIKV infected in human Huh-7 cells incubated for 48 hrs by qRT-PCR analysis; assay type: functional, organism-based; conditions: Huh-7, 48 h
Zika virus [7] = experiment: Antiviral activity against ZIKV infected in human A549 cells incubated for 48 hrs by qRT-PCR; assay type: functional, organism-based; conditions: A549, 48 h
Zika virus [8] = experiment: Antiviral activity against ZIKV infected in African green monkey Vero cells assessed as inhibition of ZIKV E protein at 0.4 uM incubated for 48 hrs by Western blot analysis relative to control; assay type: functional
Zika virus [9] = experiment: Antiviral activity against ZIKV infected in African green monkey Vero cells incubated for 48 hrs by Western blot analysis relative to control; assay type: functional, organism-based
NS5 (Zika virus) = NS5 (Zika virus) (UniProt A0A143MHK7); experiment: Inhibition of ZIKV RdRP
[10] = biological target: Nonstructural protein 3 (Zika virus) (UniProt A0A024AXB9); experiment: Inhibition of ZIK virus NS2B-NS3 protease
Zika virus [11] = experiment: Antiviral activity against ZIKV infected in Vero cells assessed as virucidal effect at 10 uM pre-treated with virus for 2 hrs followed by infected with Vero cells for 2 hrs after washout transferred to normal medium measured after 48 hrs of post infection by qRT-PCR analysis based time of drug addition assay; assay type: functional, organism-based; conditions: time 4.0 hrs
Zika virus [12] = experiment: Antiviral activity against ZIKV infected in Vero cells assessed as inhibition of viral entry at 10 uM Co-treated with virus with Vero cells followed by transferred into fresh medium measured upto 48 hrs by qRT-PCR analysis based time of drug addition assay; assay type: functional, organism-based; conditions: time 4.0 hrs
Zika virus [13] = experiment: Antiviral activity against ZIKV infected in Vero cells assessed as viral infection at 10 uM pre-treated with Vero cells for 2 hrs followed by infected with virus cells for 2 hrs and measured upto 48 hrs in fresh medium by qRT-PCR analysis based time of drug addition assay; assay type: functional, organism-based; conditions: time 4.0 hrs
Zika virus [14] = experiment: Antiviral activity against ZIKV infected in Vero cells assessed as viral RNA reduction at 10 uM treated immediately post infection incubated for 48 hrs by qRT-PCR analysis based time of drug addition assay; assay type: functional, organism-based
Zika virus [15] = experiment: Antiviral activity against ZIKV infected in Vero cells assessed as late entry stage to late viral life cycle by measuring reduction in viral RNA reduction at 10 uM treated 1 to 2 hrs post infection incubated for 48 hrs by qRT-PCR analysis based time of drug addition assay; assay type: functional, organism-based
Zika virus [16] = experiment: Antiviral activity against ZIKV infected in Vero cells assessed as late viral life cycle by measuring reduction in viral RNA reduction at 10 uM treated 3 to 6 hrs post infection incubated for 48 hrs by qRT-PCR analysis based time of drug addition assay; assay type: functional, organism-based
Zika virus [17] = experiment: Antiviral activity against ZIKV infected in Vero cells assessed as late viral life cycle by measuring reduction in viral RNA reduction at 10 uM treated 8 hrs post infection incubated for 48 hrs by qRT-PCR analysis based time of drug addition assay; assay type: functional, organism-based
Zika virus [18] = experiment: Antiviral activity against ZIKV infected in Vero cells assessed as late RNA synthesis to late viral life cycle by measuring reduction in viral RNA reduction at 10 uM treated 10 hrs post infection incubated for 48 hrs by qRT-PCR analysis based time of drug addition assay relative to 8 hrs post-infection; assay type: functional, organism-based
Zika virus [19] = experiment: Antiviral activity against ZIKV infected in Vero cells assessed as late viral life cycle by measuring reduction in viral RNA reduction at 10 uM treated 12 hrs post infection incubated for 48 hrs by qRT-PCR analysis based time of drug addition assay; assay type: functional, organism-based
Zika virus [20] = experiment: Antiviral activity against ZIKV infected in African green monkey Vero cells assessed as inhibition of ZIKV E protein at 10 uM incubated for 48 hrs by Western blot analysis relative to control; assay type: functional

Sequence of Genome polyprotein (Q32ZE1 2517-3419 limits assumed): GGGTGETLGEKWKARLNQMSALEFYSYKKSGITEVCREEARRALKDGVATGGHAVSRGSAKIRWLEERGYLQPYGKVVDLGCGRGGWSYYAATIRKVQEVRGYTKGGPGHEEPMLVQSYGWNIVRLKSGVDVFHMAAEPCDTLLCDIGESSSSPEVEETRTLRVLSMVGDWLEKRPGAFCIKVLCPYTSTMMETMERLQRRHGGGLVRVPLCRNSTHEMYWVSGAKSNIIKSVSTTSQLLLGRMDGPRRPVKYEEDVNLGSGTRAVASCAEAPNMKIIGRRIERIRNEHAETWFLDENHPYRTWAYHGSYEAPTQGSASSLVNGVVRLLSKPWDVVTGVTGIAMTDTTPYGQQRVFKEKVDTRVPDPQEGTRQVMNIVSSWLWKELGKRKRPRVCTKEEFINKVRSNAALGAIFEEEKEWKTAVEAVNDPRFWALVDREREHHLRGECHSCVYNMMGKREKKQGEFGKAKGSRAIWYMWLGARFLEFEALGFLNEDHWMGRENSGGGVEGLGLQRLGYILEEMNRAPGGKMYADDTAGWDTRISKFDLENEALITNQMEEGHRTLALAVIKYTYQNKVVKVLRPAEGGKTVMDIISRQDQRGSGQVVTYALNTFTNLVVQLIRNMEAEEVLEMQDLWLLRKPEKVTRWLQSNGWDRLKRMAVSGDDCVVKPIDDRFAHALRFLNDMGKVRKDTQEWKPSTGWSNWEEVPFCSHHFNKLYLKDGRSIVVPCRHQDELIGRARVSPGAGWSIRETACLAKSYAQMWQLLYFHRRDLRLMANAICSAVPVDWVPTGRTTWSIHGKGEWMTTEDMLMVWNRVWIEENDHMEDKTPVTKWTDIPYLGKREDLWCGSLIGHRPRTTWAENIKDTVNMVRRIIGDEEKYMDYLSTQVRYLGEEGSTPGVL
Sequence of NS5 (Zika virus) (A0A143MHK7 as listed by the source): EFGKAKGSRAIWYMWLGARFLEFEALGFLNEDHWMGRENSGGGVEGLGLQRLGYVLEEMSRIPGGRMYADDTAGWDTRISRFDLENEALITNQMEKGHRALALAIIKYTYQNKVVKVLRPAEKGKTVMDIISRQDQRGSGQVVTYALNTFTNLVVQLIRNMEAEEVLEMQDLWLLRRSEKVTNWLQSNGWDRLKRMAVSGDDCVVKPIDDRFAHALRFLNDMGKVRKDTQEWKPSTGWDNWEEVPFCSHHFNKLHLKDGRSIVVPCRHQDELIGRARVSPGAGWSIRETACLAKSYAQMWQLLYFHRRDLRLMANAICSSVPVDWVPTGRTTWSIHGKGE
Sequence of Nonstructural protein 3 (Zika virus) (A0A024AXB9 as listed by the source): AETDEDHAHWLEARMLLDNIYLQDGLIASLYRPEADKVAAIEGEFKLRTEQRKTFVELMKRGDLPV

In the case of `C=C1CC[C@@H]2[C@](C)(COC(c3ccccc3)(c3ccccc3)c3ccccc3)[C@H](O)CC[C@@]2(C)[C@@H]1/C=C/C1=CCOC1=O`, the pEC50 (Zika virus [1]) was 5.21, the CC50 at 96 h [2] was > 200 µM and the pIC50 (Genome polyprotein) was 4.41.
For `C=C1CC[C@H]2[C@@](C)(CCC(=O)[C@@]2(C)COC(c2ccccc2)(c2ccccc2)c2ccccc2)[C@@H]1/C=C/C1=CCOC1=O`, the Activity (Zika virus [1]; time 5.0 day) was “inactive”.
With `C=C1CC[C@@H]2[C@](C)(CO)[C@H](O)CC[C@@]2(C)[C@@H]1C/C=C1/C(=O)OC[C@H]1O` [ANDROGRAPHOLIDE] the pEC50 (Zika virus [1]) was 4.41 and the CC50 at 96 h [2] was > 200 µM.
For `C=C1CC[C@H]2[C@@](C)(CC/C(=N\O)[C@@]2(C)CO[Si](c2ccccc2)(c2ccccc2)C(C)(C)C)[C@@H]1/C=C/C1=CCOC1=O`, the pEC50 (Zika virus [1]) was 6.15, the CC50 at 96 h [2] was > 200 µM and the pIC50 (Genome polyprotein) was 4.85.
`C=C1CC[C@H]2[C@@](C)(CC/C(=N\O)[C@@]2(C)COC(c2ccccc2)c2ccccc2)[C@@H]1/C=C/C1=CCOC1=O` showed a pEC50 (Zika virus [1]) of 5.46 and a pIC50 (Genome polyprotein) of 3.74.
With `C=C1CC[C@H]2[C@@](C)(CC/C(=N\O)[C@@]2(C)COC(c2ccccc2)(c2ccccc2)c2ccccc2)[C@@H]1/C=C/C1=CCOC1=O` the pEC50 (Zika virus [1]) was 6.12, the CC50 at 96 h [2] was > 200 µM and the CC50 at 96 h [3] was > 200 µM. The CC50 at 96 h [4] was > 200 µM, the pEC50 (Zika virus [5]) was 6.32 and the pEC50 (Zika virus [6]) was 6.43. The pEC50 (Zika virus [7]) was 6.35, the inhibition at 0.4 µM (Zika virus [8]) was 100% and the pEC50 (Zika virus [9]) was 6.42. The inhibition (NS5 (Zika virus)) was “inactive”, the inhibition [10] was “inactive” and the Activity (Zika virus [11]) was “inactive”. The Activity (Zika virus [12]) was “inactive”, the Activity (Zika virus [13]) was “inactive” and the Activity (Zika virus [14]) was “Active”. For the same molecule, the Activity (Zika virus [15]) was “Active”, the Activity (Zika virus [16]) was “Active” and the Activity (Zika virus [17]) was “Active”. For the same molecule, the Activity (Zika virus [18]) was “inactive”, the Activity (Zika virus [19]) was “inactive” and the pIC50 (Genome polyprotein) was 4.74.
In the case of `NC(=O)c1ncn([C@@H]2O[C@H](CO)[C@@H](O)[C@H]2O)n1` [RIBAVIRIN], the inhibition at 10 µM (Zika virus [20]) was 50%.
With `C=C1CC[C@@H]2[C@](C)(CO)[C@H](O)CC[C@@]2(C)[C@@H]1/C=C/C1=CCOC1=O` the pEC50 (Zika virus [1]) was 4.51 and the CC50 at 96 h [2] was > 200 µM.
For `Nc1ncnc2c1ncn2[C@@H]1O[C@H](C[C@@H](N)CC[C@H](N)C(=O)O)[C@@H](O)[C@H]1O` [SINEFUNGIN], the pIC50 (Genome polyprotein) was 4.72.
